Data as given in patent EP0318860B1, “Substituted alkylamine derivatives” (BANYU PHARMACEUTICAL CO., LTD., priority 1987, dated 1989).
Where a name gives a salt, the structure may show the parent alone.

The compounds below were run against T1, rat squalene epoxidase (Rattus norvegicus, UniProt P52020) (assay: Squalene epoxidase inhibiting activity (3H-squalene to squalene-2,3-epoxide, solubilized liver microsome fraction)). Conditions: 8 µM 3H-squalene, 37 °C, 30 minutes, read-out: 50 % inhibitory concentration (IC50).
T1 construct: Livers were extracted and homogenized; from tissue; host or cells: liver of SD-strain female rats; microsomes solubilized with 2 % Triton X-100, 105000 x g supernatant
T1 sequence (P52020 whole entry): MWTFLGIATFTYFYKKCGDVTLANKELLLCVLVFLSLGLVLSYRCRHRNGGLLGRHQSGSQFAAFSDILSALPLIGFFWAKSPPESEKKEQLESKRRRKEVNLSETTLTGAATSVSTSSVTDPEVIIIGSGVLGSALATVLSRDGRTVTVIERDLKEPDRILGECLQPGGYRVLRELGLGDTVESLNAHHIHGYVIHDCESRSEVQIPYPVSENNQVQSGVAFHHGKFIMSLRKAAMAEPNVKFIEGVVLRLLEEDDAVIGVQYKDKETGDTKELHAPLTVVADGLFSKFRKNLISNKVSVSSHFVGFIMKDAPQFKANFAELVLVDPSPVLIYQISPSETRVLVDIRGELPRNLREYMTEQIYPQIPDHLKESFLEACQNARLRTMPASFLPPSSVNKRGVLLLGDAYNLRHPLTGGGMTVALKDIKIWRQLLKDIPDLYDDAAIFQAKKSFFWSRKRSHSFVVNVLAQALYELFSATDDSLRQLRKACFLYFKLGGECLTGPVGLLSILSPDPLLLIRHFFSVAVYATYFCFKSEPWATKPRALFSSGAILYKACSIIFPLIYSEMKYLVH
Format: biochemical
Procedure: The rat squalene epoxidase was prepared by the method described in J. Biol. Chem., vol.
SD-strain female rats were killed by exsanguination. Livers were extracted and homogenized with in the presence of 2 volumes of 0.1M Tris-HCl buffer (pH 7.5). The homogenate was centrifuged at 9750 Xg for 10 minutes. The supernatant fraction was further centrifuged at 105000 Xg for 1 hour. The sediment was washed with 0.1M Tris-HCl buffer (pH 7.5), and then centrifuged at 105000 Xg for 1 hour. The microsomes obtained were suspended in 0.1M Tris-HCl buffer (pH 7.5) so that the amount of proteins was 40 mg/ml, and under ice cooling, the suspension was stirred in the presence of 2 % Triton X-100 to solubilize the enzyme. After the solubilization, the solution was diluted to a Triton X-100 concentration of 0.5 % with 1 mM EDTA and 1 mM dithiothreitol, and centrifuged at 105000 Xg for 1 hour. The resulting supernatant fraction was used in the following test as a squalene epoxidase fraction.
The squalene epoxidase activity was assayed in accordance with the method described in J. Biol. Chem., vol.
Three microliters of a dimethyl sulfoxide solution of a test drug was added to a solution composed of 0.2 ml of the squalene epoxidase fraction prepared in (1) [proteins 0.4 mg, 0.5 % Triton X-100, […] Tris-HCl buffer (pH 7.5)], 100 µM FAD, 1 mM NADPH, 1 mM EDTA and 8 µM ³H-squalene-Tween 80 emulsion to adjust the total amount of the solution to 0.3 ml. The solution was incubated at 37 °C for 30 minutes with shaking. Then, 0.3 ml of a 10 % methanolic potassium hydroxide was added to stop the reaction, and the reaction mixture was left to stand at room temperature for 1 hour. The non-saponified material was extracted with petroleum ether, and the solvent was evaporated under a nitrogen stream. […] The position of the resulting ³H-squalene-2,3-epoxide on TLC was determined using ergosterol acetate as a marker, and the ³H-squalene-2,3-epoxide portion on the TLC was cut off. The TLC strip was immersed in a toluene-type scintillator, and measured by a liquid scintillation counter.

Row | SMILES | IC50 [nM]
1 | CC(C)(C)C#C/C=C/CNCc1cccc(OCc2ccccc2)c1 [Compound 1, (E)-N-(6,6-dimethyl-2-hepten-4-ynyl)-3-benzyloxybenzylamine] | 6800
2 | CN(C/C=C/C#CC(C)(C)C)Cc1cccc(OCc2cccc(Cl)c2)c1 [Compound 8, (E)-N-(6,6-dimethyl-2-hepten-4-ynyl)-N-methyl-3-(3-chlorobenzyloxy)benzylamine] | 2900
3 | CN(C/C=C/C#CC(C)(C)C)Cc1cccc(OCc2ccc(F)cc2)c1 [Compound 10, (E)-N-(6,6-dimethyl-2-hepten-4-ynyl)-N-methyl-3-(4-fluorobenzyloxy)benzylamine] | 4700
4 | COc1ccc(COc2cccc(CN(C)C/C=C/C#CC(C)(C)C)c2)cc1 [Compound 12, (E)-N-(6,6-dimethyl-2-hepten-4-ynyl)-N-methyl-3-(4-methoxybenzyloxy)benzylamine] | 6000
5 | CC(Oc1cccc(CN(C)C/C=C/C#CC(C)(C)C)c1)c1ccccc1 (stereo not drawn) [Compound 16, (E)-N-(6,6-dimethyl-2-hepten-4-ynyl)-N-methyl-3-(alpha-phenethyloxy)benzylamine] | 1400
6 | CN(C/C=C\C#CC(C)(C)C)Cc1cccc(OCc2cccc3ccccc23)c1 [Compound 19, (Z)-N-(6,6-dimethyl-2-hepten-4-ynyl)-N-methyl-3-(1-naphthylmethyloxy)benzylamine] | 3100
7 | Cc1ccc(CN(C)C/C=C/C#CC(C)(C)C)cc1OCc1ccccc1 [Compound 28, (E)-(6,6-dimethyl-2-hepten-4-ynyl)-N-methyl-3-benzyloxy-4-methylbenzylamine] | 5600
8 | CN(C/C=C/C#CC(C)(C)C)Cc1cccc(OCc2ccco2)c1 [Compound 34, (E)-N-(6,6-dimethyl-2-hepten-4-ynyl)-N-methyl-3-furfuryloxybenzylamine] | 1700
9 | C=CCN(C/C=C/C#CC(C)(C)C)Cc1cccc(OCc2ccccc2)c1 [Compound 41, (E)-N-allyl-N-(6,6-dimethyl-2-hepten-4-ynyl)-3-benzyloxybenzylamine] | 2100
10 | C#CCN(C/C=C/C#CC(C)(C)C)Cc1cccc(OCc2ccccc2)c1 [Compound 42, (E)-N-(6,6-dimethyl-2-hepten-4-ynyl)-N-propargyl-3-benzyloxybenzylamine] | 9600
11 | CC(C)(C)C#C/C=C/CN(Cc1cccc(OCc2ccccc2)c1)C1CC1 [Compound 43, (E)-N-cyclopropyl-N-(6,6-dimethyl-2-hepten-4-ynyl)-3-benzyloxybenzylamine] | 3900
12 | Cc1cc(CN(C)C/C=C/C#CC(C)(C)C)cc(OCc2ccccc2)c1 [Compound 48, (E)-N-(6,6-dimethyl-2-hepten-4-ynyl)-N-methyl-3-benzyloxy-5-methylbenzylamine hydrochloride] | 5100
13 | CN(C/C=C/C#CC(C)(C)C)Cc1ccc(F)c(OCc2ccccc2)c1 [Compound 49, (E)-N-(6,6-dimethyl-2-hepten-4-ynyl)-N-methyl-3-benzyloxy-4-fluorobenzylamine] | 4900
14 | CN(C/C=C/C#CC(C)(C)C)Cc1ccc(O)c(OCc2ccccc2)c1 [Compound 50, (E)-N-(6,6-dimethyl-2-hepten-4-ynyl)-N-methyl-3-benzyloxy-4-hydroxybenzylamine hydrochloride] | 2100
15 | COc1ccccc1COc1cccc(CN(C)C/C=C/C#CC(C)(C)C)c1 [Compound 51, (E)-N-(6,6-dimethyl-2-hepten-4-ynyl)-N-methyl-3-(2-methoxybenzyloxy)benzylamine hydrochloride] | 1100
16 | COc1cccc(COc2cccc(CN(C)C/C=C/C#CC(C)(C)C)c2)c1 [Compound 52, (E)-N-(6,6-dimethyl-2-hepten-4-ynyl)-N-methyl-3-(3-methoxybenzyloxy)benzylamine hydrochloride] | 1400
17 | Cc1cccc(COc2cccc(CN(C)C/C=C/C#CC(C)(C)C)c2)c1 [Compound 53, (E)-N-(6,6-dimethyl-2-hepten-4-ynyl)-N-methyl-3-(3-methylbenzyloxy)benzylamine] | 660
18 | Cc1ccc(COc2cccc(CN(C)C/C=C/C#CC(C)(C)C)c2)cc1 [Compound 54, (E)-N-(6,6-dimethyl-2-hepten-4-ynyl)-N-methyl-3-(4-methylbenzyloxy)benzylamine] | 1800

Row | SMILES | IC50 [nM]
19 | Cc1cccc(COc2cccc(CN(C)C/C=C/C#CC(C)(C)C)c2)c1C [Compound 55, (E)-N-(6,6-dimethyl-2-hepten-4-ynyl)-N-methyl-3-(2,3-dimethylbenzyloxy)benzylamine hydrochloride] | 600
20 | CN(C/C=C/C#CC(C)(C)C)Cc1cccc(OCc2ccccc2Cl)c1 [Compound 56, (E)-N-(6,6-dimethyl-2-hepten-4-ynyl)-N-methyl-3-(2-chlorobenzyloxy)benzylamine] | 2100
21 | CN(C/C=C/C#CC(C)(C)C)Cc1cccc(OCc2cccc(C(F)(F)F)c2)c1 [Compound 57, (E)-N-(6,6-dimethyl-2-hepten-4-ynyl)-N-methyl-3-(3-trifluoromethylbenzyloxy)benzylamine hydrochloride] | 3100
22 | CN(C/C=C/C#CC(C)(C)C)Cc1cccc(OCCCc2ccccc2)c1 [Compound 58, (E)-N-(6,6-dimethyl-2-hepten-4-ynyl)-N-methyl-3-(3-phenylpropoxy)benzylamine hydrochloride] | 7900
23 | CCc1ccccc1COc1cccc(CN(C)C/C=C/C#CC(C)(C)C)c1 [Compound 62, (E)-N-(6,6-dimethyl-2-hepten-4-ynyl)-N-methyl-3-(2-ethylbenzyloxy)benzylamine hydrochloride] | 360
24 | CN(C/C=C/C#CC(C)(C)C)Cc1cccc(OC/C=C/c2ccccc2)c1 [Compound 63, N-[(E)-6,6-dimethyl-2-hepten-4-ynyl]-N-methyl-3-[(E)-3-phenyl-2-propenyloxy]benzylamine hydrochloride] | 5400
25 | CN(C/C=C/C#CC(C)(C)C)Cc1cccc(OCc2cccc(O)c2)c1 [Compound 65, (E)-N-(6,6-dimethyl-2-hepten-4-ynyl)-N-methyl-3-(3-hydroxybenzyloxy)benzylamine] | 4600
26 | CN(C/C=C/C#CC(C)(C)C)Cc1cccc(OCc2ccccc2F)c1 [Compound 66, (E)-N-(6,6-dimethyl-2-hepten-4-ynyl)-N-methyl-3-(2-fluorobenzyloxy)benzylamine hydrochloride] | 1200
27 | CN(C/C=C/C#CC(C)(C)C)Cc1cccc(OCc2ccccc2C#N)c1 [Compound 67, (E)-N-(6,6-dimethyl-2-hepten-4-ynyl)-N-methyl-3-(2-cyanobenzyloxy)benzylamine hydrochloride] | 2400
28 | CN(C/C=C/C#CC(C)(C)C)Cc1cccc(OCc2ccccc2C(F)(F)F)c1 [Compound 68, (E)-N-(6,6-dimethyl-2-hepten-4-ynyl)-N-methyl-3-(2-trifluoromethylbenzyloxy)benzylamine hydrochloride] | 1200
29 | C=C(C)c1cccc(COc2cccc(CN(C)C/C=C/C#CC(C)(C)C)c2)c1 [Compound 69, (E)-N-(6,6-dimethyl-2-hepten-4-ynyl)-N-methyl-3-(3-isopropenylbenzyloxy)benzylamine] | 510
30 | CC(C)=Cc1cccc(COc2cccc(CN(C)C/C=C/C#CC(C)(C)C)c2)c1 [Compound 70, (E)-N-(6,6-dimethyl-2-hepten-4-ynyl)-N-methyl-3-[3-(2-methyl-1-propenyl)benzyloxy]benzylamine] | 3100
31 | C=C(C)Cc1cccc(COc2cccc(CN(C)C/C=C/C#CC(C)(C)C)c2)c1 [Compound 71, (E)-N-(6,6-dimethyl-2-hepten-4-ynyl)-N-methyl-3-[3-(2-methyl-2-propenyl)benzyloxy]benzylamine] | 540
32 | CC(C)=CCc1cccc(COc2cccc(CN(C)C/C=C/C#CC(C)(C)C)c2)c1 [Compound 72, (E)-N-(6,6-dimethyl-2-hepten-4-ynyl)-N-methyl-3-[3-(3-methyl-2-butenyl)benzyloxy]benzylamine] | 9700
33 | CC(C)=CCOc1cccc(COc2cccc(CN(C)C/C=C/C#CC(C)(C)C)c2)c1 [Compound 73, (E)-N-(6,6-dimethyl-2-hepten-4-ynyl)-N-methyl-3-[3-(3-methyl-2-butenyloxy)benzyloxy]benzylamine] | 2300
34 | CN(C/C=C/C#CC(C)(C)C)Cc1cccc(OCc2cccc(-c3ccccc3)c2)c1 [Compound 74, (E)-N-(6,6-dimethyl-2-hepten-4-ynyl)-N-methyl-3-(3-phenylbenzyloxy)benzylamine hydrochloride] | 570
35 | CN(C/C=C/C#CC(C)(C)C)Cc1cccc(OCc2cccc(-c3ccco3)c2)c1 [Compound 75, (E)-N-(6,6-dimethyl-2-hepten-4-ynyl)-N-methyl-3-[3-(2-furyl)benzyloxy]benzylamine hydrochloride] | 140
